Experimental findings from ChEMBL document CHEMBL1157539, “Thousands of chemical starting points for antimalarial lead identification” (Nature, 2010) are described below.

This assay has as its system Plasmodium falciparum. Description: GSK_TCMDC: Inhibition of Plasmodium falciparum 3D7 in whole erythrocytes, using parasite LDH activity as an index of growth. The class given is functional, organism-based. Conditions: Plasmodium falciparum, 3D7.
Compound `C=C1C(C(=O)OCC)=CN(CC)c2cc(O[C@@H]3CCN(C(=O)OC(C)(C)C)C3)ccc21` showed an XC50 of 290 nM.

Take `O=C(Nc1ccccc1O)c1ccc(Oc2cccc(C(=O)Nc3ccccc3O)c2)cc1`: the XC50 stood at 799 nM.

`CS(=O)(=O)Nc1ccc2[nH]cc(C3CCN(CCCCCNC(=O)/C=C/c4ccc(Cl)c(Cl)c4)CC3)c2c1` came in with an XC50 of 736 nM.

In the case of `CCCCCc1ccc(N2C(N)=NC(N)=NC2(C)C)cc1`, the XC50 was determined as 131 nM.

Take `CCCCCCCCNCC(O)c1ccc(Cl)c(Cl)c1` (configuration not stated): the XC50 turned out to be 819 nM.

`Cc1cc(=NN=Cc2ccc(Cl)cc2)c2ccc(F)cc2[nH]1` yielded an XC50 of 757 nM.

`CCOC(=O)C1=C(C)N=c2sc(=Cc3cc(Cl)ccc3O)c(=O)n2C1c1ccc2c(c1)OCO2` (configuration not stated): the XC50 was found to be 712 nM.

In the case of `Cc1cc(-c2cccc(CNCc3ccc(F)cc3)c2)ccc1S(=O)(=O)NCCN1CCCC1`, the XC50 stood at 732 nM.

In turn, `CCN(C)C(=O)n1ncc2c3c(N)nc(N)nc3ccc21` gave an XC50 of 176 nM.

The compound `Cc1cnc2ccc(NS(=O)(=O)c3ccc4c(Cl)cccc4c3)cc2c1N1CCNCC1` displayed an XC50 of 751 nM.

Turning to `CN1CCN(CC(=O)Nc2cccc(-c3cccc(-c4nc5ccccc5[nH]4)c3)c2)CC1`, the XC50 was 1290 nM.

For the compound `COc1cccc(NC(=O)NC2CCN(c3ccnc(Nc4ccc(F)cc4)n3)C2)c1` (configuration not stated), the XC50 was found to be 570 nM.

Compound `COc1cc(NC(=O)c2sc(-c3ccc(Cl)cc3)cc2Cl)ccc1OCCN1CCCC1` showed an XC50 of 976 nM.

`CC1(C)NC(N)=NC(=N)N1OCC1CCCCC1` came in with an XC50 of 3.2 nM.

For `Cc1cccc2nc(-c3cccc(-c4cccc(NC(=O)c5ccc(C(N)=O)cc5)c4)c3)[nH]c12`, the XC50 came out at 323 nM.

For the compound `Cc1[nH]c(C)c(-c2ccc(-c3ccccc3C(F)(F)F)nc2)c(=O)c1Br`, the XC50 was found to be 168 nM.

For the compound `O=C(/C=C/c1ccc(Cl)c(Cl)c1)N1CCC(CCN2CCC(c3c[nH]c4ccncc34)CC2)CC1`, the XC50 is 1140 nM.

In turn, `CN(C)Cc1cc(Nc2ccnc3cc(Cl)ccc23)ccc1O` showed an XC50 of 9.49 nM.

As for `Cc1ccc([N+](=O)[O-])cc1NC(=O)N(CC(O)c1ccccc1)C1CCCCC1` (configuration not stated), the XC50 came to 730 nM.

The compound `N=C(N)Nc1nc(-c2ccc(NCc3ccc(CNc4cccc(-c5csc(NC(=N)N)n5)c4)cc3)cc2)cs1` showed an XC50 of 310 nM.

As for `Cc1[nH]c(C)c(-c2ccc(OCc3ccc(F)cc3)nc2)c(=O)c1Br`, the XC50 was 203 nM.

As for `COc1cc(NC(=O)c2cccs2)c(OC)cc1NC(=O)Nc1cccc(Cl)c1`, the XC50 turned out to be 1000 nM.

`CCc1cn2c3c(cc(C(=O)N[C@@H](Cc4ccccc4)[C@H](O)CNC4CCCCC4)cc13)N(C)S(=O)(=O)C2` yielded an XC50 of 87.1 nM.

The compound `O=C(Cc1ccccc1)NC1(c2ccccc2)CCN(CCc2c[nH]c3ccc(F)cc23)CC1` gave an XC50 of 878 nM.

The compound `COc1ccc(CCN(C)CCCCNC(=O)c2ccc(NC(=O)c3ccc(Cl)cc3)cc2)c(OC)c1` gave an XC50 of 921 nM.

Compound `Cc1ccc(-c2nnc(Nc3ccc(CC(N)=O)cc3)c3ccccc23)cc1S(=O)(=O)NCC1CCCO1` (configuration not stated) showed an XC50 of 791 nM.

Compound `CCCCCc1cc(OCCN(C)C)cc2c1C(=O)CC(C)(C)O2` returned an XC50 of 103 nM.

With `COc1cc2nc(N3CCC(CNC(=O)c4ccc(-c5ccc(C(=O)N(C)C)cc5O)cc4)CC3)nc(N)c2cc1OC`, the XC50 was found to be 278 nM.

`O=C(NC1CCN(CC2(c3ccc(Cl)cc3)CCC2)CC1)c1cscn1` displayed an XC50 of 535 nM.

On to `OCC1CCN(Cc2cccc(-c3ccc(-c4nc5cc(F)ccc5[nH]4)cc3)c2)CC1`, for which the XC50 stood at 720 nM.

As for `CCCO[C@H](C(=O)OC)[C@@H](CC1Cc2ccccc2C1)C(=O)NCCC1=CCCCC1`, the XC50 came to 970 nM.

In the case of `COCCOc1cccc(CN2CCC(c3cc4nc(C)cc(C(F)(F)F)n4n3)C2)c1` (configuration not stated), the XC50 worked out at 1330 nM.

The compound `CC1CN(C(=O)c2sc3ccccc3c2Cl)CC(C)O1` (configuration not stated) had an XC50 of 87.9 nM.

For the compound `Cc1cccc(NC(=O)NCc2ccccc2)n1`, the XC50 stood at 944 nM.

As to `N#Cc1ccc2c(c1)CCN(CCC1CCC(Nc3ncnc4ccccc34)CC1)C2` (configuration not stated), the XC50 came out at 635 nM.

Compound `COc1ccc2nccc(N3CCN(CCNCc4ccc5c(n4)NC(=O)CS5)CC3)c2n1` came in with an XC50 of 843 nM.

Compound `COc1ccc(Nc2nccc(N3CCC(NC(=O)Nc4cccc(OC)c4)C3)n2)cc1` (configuration not stated) showed an XC50 of 424 nM.

With `CS(=O)(=O)c1ccc(-c2cncc(Nc3cccc([N+](=O)[O-])c3)c2)cc1`, the XC50 was found to be 773 nM.

As for `CCCCCCCN1CCC(CC(=O)Nc2ccnc3ccc(OC)cc23)C(CC)C1` (configuration not stated), the XC50 was found to be 593 nM.

Regarding `O=C(NC1CCCC1)c1ccc(N2CCC(NCc3cccc(C(F)(F)F)c3)CC2)cc1`, the XC50 is 1330 nM.

`COc1ccc(Nc2ncc3c(-c4cccc(NC(=O)CC(C)C)c4)c[nH]c3n2)cc1OC`: the XC50 is 826 nM.

`Cc1cc(C)cc(OCC(O)CN(Cc2cc(Cl)cc(Cl)c2)C(=O)Nc2ccc(Cl)cc2)c1` (configuration not stated) returned an XC50 of 810 nM.

On to `CCc1cc([C@H]2O[C@@H](n3cnc4c(NCC(c5ccccc5)c5ccccc5)nc(NCCNc5ccccn5)nc43)[C@H](O)[C@@H]2O)on1`, for which the XC50 stood at 891 nM.

Turning to `CN1CCC(N2CCN(CCOc3cc(NC(=O)/C=C/c4ccccc4Cl)ccc3Br)CC2)CC1`, the XC50 came to 360 nM.

As to `CN(C(=O)/C=C/c1cc(C(F)(F)F)ccc1F)C1CCN(CCCCCNC(=O)/C=C/c2ccc(Cl)c(Cl)c2)CC1`, the XC50 stood at 287 nM.

As for `Nc1nc(N)c2cc(NS(=O)(=O)c3ccc(-c4ccccc4)cc3)ccc2n1`, the XC50 was 699 nM.

Take `CCCCCCc1cc(O)c2c3c(c(=O)oc2c1)CCN(C)C3`: the XC50 was found to be 671 nM.

Compound `COc1cc2nc(Nc3ccc(N4CCOCC4)cc3)nc(N)c2cc1OC` came in with an XC50 of 871 nM.

Regarding `O=C(Nc1cccc(F)c1)NC1CCN(CCCCCNC(=O)C2CC2c2ccc(Cl)c(Cl)c2)CC1` (configuration not stated), the XC50 was determined as 763 nM.

Compound `COC(=O)c1cccc(C#CCCOCCCCCCNC[C@H](O)c2cc(Cl)c(N)c(Cl)c2)c1` had an XC50 of 771 nM.

The compound `CC12CN3CC(C)(CN(C1)C3c1cc(Br)ccc1O)C2O` (configuration not stated) registered an XC50 of 228 nM.

The compound `CCCCc1cc(Cc2cnc(N)nc2N)cc(OC)c1OC` gave an XC50 of 1040 nM.

Compound `O=C(c1ccc([N+](=O)[O-])o1)N1CCN(c2nc3c(F)cc(F)cc3s2)CC1` displayed an XC50 of 974 nM.

The compound `COc1ccc2nc(N3CCNCC3)nc(NCCCc3ccccc3)c2c1` came in with an XC50 of 1000 nM.

`COc1ccc2ccccc2c1C=NN=c1cc(C)[nH]c2cc(C(F)(F)F)ccc12`: the XC50 was 1040 nM.

Turning to `C/C=C1\CN2CC[C@H]1C[C@H]2[C@H](O)c1ccnc2ccc(O)cc12`, the XC50 turned out to be 601 nM.

As to `CC(C)(C)OC(=O)C1CCCN(Cc2ccc(-c3cccc(-c4nc5ccccc5[nH]4)c3)cc2)C1` (configuration not stated), the XC50 was 358 nM.

On to `COc1ccc2nccc([C@@H](O)CN3CCC(NCc4cc5cccc(OC)c5o4)CC3)c2c1`, for which the XC50 stood at 794 nM.

With `Cc1ccoc1C(=O)Nc1cccc(-c2cccc(-c3nc4ccccc4[nH]3)c2)c1`, the XC50 is 1220 nM.

The compound `O=C(NC1CCC(CN2CCC(c3c[nH]c4ccccc34)CC2)CC1)c1cnn(-c2ccccc2)c1-c1ccccc1Cl` (configuration not stated) came in with an XC50 of 182 nM.

`COc1ccc(C2CC(c3cccs3)=NN2C(=O)CNc2cccc(C#N)c2)cc1OC` (configuration not stated) came in with an XC50 of 1450 nM.

Regarding `CCCN(Cc1ccc(C)cc1)Cc1cc(=O)c2cc(Cl)ccc2[nH]1`, the XC50 turned out to be 1050 nM.

`COc1ccccc1-c1ccc(C(=O)NCC2CCCN(Cc3cccc(C(F)(F)F)c3)C2)s1` (configuration not stated): the XC50 is 1540 nM.

`Cc1ccccc1C1CCN(C2CCC(NC(=O)/C=C/c3ccc(OC(F)(F)F)cc3)CC2)CC1` (configuration not stated): the XC50 was 857 nM.

As to `O=C(NC1CCCCC1)N(Cc1cccc(-c2ccc(CNC3CCCC3)cc2)c1)C1CCN(Cc2ccccc2)CC1`, the XC50 worked out at 951 nM.

In turn, `Cc1ccccc1C1CCN(C2CCC(NC(=O)c3cc4cc(C(C)C)ccc4[nH]3)CC2)CC1` (configuration not stated) returned an XC50 of 695 nM.

`C=CCNS(=O)(=O)c1ccc(NC(=O)C(C)Oc2ccc([N+](=O)[O-])cc2)cc1` (configuration not stated) yielded an XC50 of 1220 nM.

`CCC(C)CN1CCN(c2ccc(NC(=O)c3cccs3)cc2)C(C)C1` (configuration not stated) displayed an XC50 of 544 nM.

For the compound `Cc1cccc2nc(-c3cccc(-c4ccc(NC(=O)Nc5ccsc5)cc4)c3)[nH]c12`, the XC50 came to 116 nM.

Consider `O=S(=O)(NCCN1CCCC1)c1ccc(-c2cccc(CNCc3ccccc3)c2)s1`, for which the XC50 stood at 806 nM.

Consider `CCSc1ccccc1COc1c(C)nc(N)nc1N`, for which the XC50 worked out at 68.4 nM.

In turn, `COc1ccc2c(=NN=Cc3ccncc3)cc(C)[nH]c2c1` came in with an XC50 of 814 nM.

With `CCCCOc1ccc(C(=O)C(CCC(CNC(C)(C)C)C(=O)c2ccc(OCCCC)cc2)CNC(C)(C)C)cc1` (configuration not stated), the XC50 came out at 1020 nM.

`CC(=O)N(C)C1CCN(Cc2cccc(-c3ccc(-c4nc5cc(C(F)(F)F)ccc5[nH]4)cc3)c2)C1` (configuration not stated) came in with an XC50 of 563 nM.

Compound `CC(C)(O)CC(C)(C)c1cc(Cl)ccc1O` came in with an XC50 of 455 nM.

`Nc1ncc(-c2cn[nH]c2)cc1-c1nc2ccc(Cl)cc2[nH]1` had an XC50 of 799 nM.

For the compound `Cc1cc(N2CCC(NS(=O)(=O)c3cccc4cccnc34)CC2)nc(Nc2cccc(C#N)c2)n1`, the XC50 is 748 nM.

For `CCCc1cc(Cc2cnc(N)nc2N)cc(OCCCCCC(=O)O)c1OC`, the XC50 was determined as 164 nM.

As to `O=C(Nc1ccc(-c2nc3ccccc3[nH]2)cc1)c1ccc(N2CCCC2)c([N+](=O)[O-])c1`, the XC50 stood at 678 nM.

In the case of `CCNc1cc(C(=O)N[C@@H](Cc2ccccc2)[C@H](O)CNCc2ccc3c(c2)OCCO3)cc(N2CCCCS2(=O)=O)c1`, the XC50 was determined as 1350 nM.

In turn, `OC(c1ccccc1)C1CN(Cc2ccccc2)CCC1(O)c1ccccc1` (configuration not stated) showed an XC50 of 846 nM.

`COc1cc(NC(=O)c2cccc([N+](=O)[O-])c2)cc(S(=O)(=O)c2ccc(Cl)cc2)c1`: the XC50 worked out at 1130 nM.

Regarding `O=S(=O)(NCCN1CCCC1)c1ccc(-c2ccc(CNC3Cc4ccccc4C3)cc2)cc1`, the XC50 was found to be 664 nM.

Regarding `C=CC[C@@H](C(=O)OCC)[C@@H]1[C@@H](N(CC=C)C(=O)OC(C)(C)C)CCN1C(=O)OCc1ccccc1`, the XC50 was 964 nM.

`CCCCCCCCn1c2c(c(=N)c3c1CCC3)CCC2`: the XC50 stood at 222 nM.

The compound `CC(C)[C@H](NC(=O)c1ccc(O)c(-c2cccc(C(F)(F)F)c2)c1)C(=O)NC1CCCc2ccccc21` (some centres not stated) yielded an XC50 of 930 nM.

As for `Cc1cc(N)c2cc(NC(=O)/C=C/c3ccccc3)ccc2n1`, the XC50 was 757 nM.
